Experimental data reported in ChEMBL document CHEMBL1134985, “Design and synthesis of 6-substituted amino-4-oxa-1-azabicyclo[3,2,0]heptan-7-one derivatives as cysteine proteases inhibitors” (Bioorg Med Chem Lett, 2002).

Experiments:
Cathepsin S = Cathepsin S (Homo sapiens, UniProt P25774); test: In vitro Inhibitory activity against Cathepsin S cysteine protease by using Cbz-Val-Val-Arg-AMC
Procathepsin L = biological target: T1, Procathepsin L (Rattus norvegicus, UniProt P07154); test: In vitro Inhibitory activity against Cathepsin L cysteine protease by using Cbz-Phe-Arg-AMC
T1 sequence (P07154 whole entry): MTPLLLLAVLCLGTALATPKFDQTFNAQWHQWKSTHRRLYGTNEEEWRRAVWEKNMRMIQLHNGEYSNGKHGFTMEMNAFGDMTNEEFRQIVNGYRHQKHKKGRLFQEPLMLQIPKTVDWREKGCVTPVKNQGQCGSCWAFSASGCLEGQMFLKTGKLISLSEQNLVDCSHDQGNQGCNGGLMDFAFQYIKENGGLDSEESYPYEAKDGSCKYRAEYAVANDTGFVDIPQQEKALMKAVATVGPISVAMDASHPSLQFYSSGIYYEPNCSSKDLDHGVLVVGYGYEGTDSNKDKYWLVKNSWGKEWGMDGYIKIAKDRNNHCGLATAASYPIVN

Cathepsin B = Cathepsin B (Homo sapiens, UniProt P07858); test: In vitro Inhibitory activity against Cathepsin B cysteine protease by using Cbz-Phe-Arg-AMC
Cathepsin K = biological target: T2, Cathepsin K (Homo sapiens, UniProt P43235); test: In vitro Inhibitory activity against Cathepsin K cysteine protease by using Cbz-Phe-Arg-AMC
T2 sequence (P43235 whole entry): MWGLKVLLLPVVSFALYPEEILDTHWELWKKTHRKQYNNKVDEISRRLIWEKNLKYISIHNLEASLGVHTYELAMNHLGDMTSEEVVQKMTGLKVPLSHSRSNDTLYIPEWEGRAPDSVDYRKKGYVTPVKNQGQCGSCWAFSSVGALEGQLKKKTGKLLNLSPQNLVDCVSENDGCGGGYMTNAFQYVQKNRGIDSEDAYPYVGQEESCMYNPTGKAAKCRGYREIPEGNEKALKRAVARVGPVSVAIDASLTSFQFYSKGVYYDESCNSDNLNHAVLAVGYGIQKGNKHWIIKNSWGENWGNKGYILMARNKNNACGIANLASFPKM

Cathepsin S, sequence (P25774 whole entry): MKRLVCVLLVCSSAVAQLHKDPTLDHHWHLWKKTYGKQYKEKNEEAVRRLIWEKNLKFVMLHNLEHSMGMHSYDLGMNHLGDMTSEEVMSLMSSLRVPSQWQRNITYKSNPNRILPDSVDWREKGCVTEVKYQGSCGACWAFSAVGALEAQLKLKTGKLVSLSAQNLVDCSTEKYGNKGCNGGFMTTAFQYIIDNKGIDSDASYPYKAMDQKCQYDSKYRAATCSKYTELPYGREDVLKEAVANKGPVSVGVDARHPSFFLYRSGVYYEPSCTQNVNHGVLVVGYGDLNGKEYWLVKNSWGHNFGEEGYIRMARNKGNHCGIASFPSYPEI

IC50 (Cathepsin S) [nM]	IC50 (Procathepsin L) [nM]	IC50 (Cathepsin B) [nM]	IC50 (Cathepsin K) [nM]	SMILES
260	600	30000	100	CC(C)[C@H](NC(=O)OCc1ccccc1)C(=O)N[C@@H]1C(=O)N2CCO[C@H]12
> 2500	38000	> 50000	> 2500	C[C@H](NC(=O)OCc1ccccc1)C(=O)N[C@@H]1C(=O)N2CCO[C@H]12
–	1830	> 50000	–	O=C(N[C@H](C(=O)N[C@@H]1C(=O)N2CCO[C@H]12)c1ccccc1)OCc1ccccc1
77	4	12200	5	O=C(N[C@@H](Cc1ccccc1)C(=O)N[C@@H]1C(=O)N2CCO[C@@H]12)OCc1ccccc1
430	85	1760	1630	O=C(N[C@@H](Cc1ccccc1)C(=O)N[C@@H]1C(=O)N2CCO[C@H]12)OCc1ccccc1
